Read-outs that look alike come from different tables or passages of the source. Marks after values point to notes of the source that are not given here.
What was measured:
wild-type E. coli = assay: Growth inhibition of bacterial cell cultures; assay type: cell-based; settings: for IC50: Escherichia coli, read-out: IC50 (inhibit the growth by half); for IC50/IC50(puro): wild-type E. coli, IC50(puro) = concentration causing 50% inhibition in peptide-bond formation at 2 mM puromycin
Description: (§1) S. aureus or E. coli cells (400 μl of a 0.700 OD560 preculture) containing wild-type or mutant ribosomes were added in 3.6 ml of LB (Luria Broth) medium and grown at 37°C in the presence or absence of CAM or PA–CAM conjugates until the optical density of the control culture (grown in the absence of drug) reached the value 0.700 at 560 nm. From the growth curves, the IC50 value for each strain was estimated as the concentration of the drug that is required to inhibit the growth by half.

wild-type S. aureus = assay: Growth inhibition of bacterial cell cultures; assay type: cell-based; settings: Staphylococcus aureus, read-out: IC50 (inhibit the growth by half)
Description: as §1

[1] = system: E. coli (A2503C) TA531 cells with pKK35 plasmid, mutated 23S rRNA; assay: Growth inhibition of bacterial cell cultures, CAM-resistant mutant; assay type: cell-based; settings: Escherichia coli, read-out: IC50 (inhibit the growth by half)
Source text: (§2) CAM free base [D-(-)threo-1-(p-nitrophenyl)-2-amino-1,3-propanediol], puromycin dihydrochloride, tRNA^Phe from E. coli, dimethyl sulfate (DMS), DMS stop solution and tRNA^Phe from E. coli were purchased from Sigma-Aldrich. Kethoxal and 1-cyclohexyl-3-(2-morpholinoethyl)-carbodiimide metho-p-toluene sulfate (CMCT) were from MP Biomedicals and Fluka Biochemicals, respectively. AMV reverse transcriptase was supplied by Roche, dNTPs by HT Biotechnology, and ddNTPs by Jena Bioscience. L-[2,3,4,5,6 -^3H]Phenylalanine was from Amersham Biosciences and [α-^32P]ATP from Izotop. Cellulose nitrate filters (type HA; 0.45 μm pore size) were from Millipore Corp. Details in experimental procedures of synthesis and physical and spectra data for the synthesized compounds will be published elsewhere. […] The mesothelioma cell line ZL34 and its immortalized counterpart cell line Met5A, were kindly provided by Prof. G. Stathopoulos (University of Patras).
as §1

[2] = system: E. coli (A2058G) TA531 cells with pKK35 plasmid, mutated 23S rRNA; assay: as above; assay type: cell-based; settings: Escherichia coli, read-out: IC50 (inhibit the growth by half)
Source text: as §2, §1

[3] = system: complex C (poly(U)-programmed ribosomes from E. coli bearing Ac[3H]Phe-tRNA at the P-site), peptidyl transferase; assay: Inhibition of AcPhe-puromycin synthesis (puromycin reaction, peptide bond formation); assay type: biochemical; settings: for Ki: 25°C, buffer A; for koff: isomerization C*I to CI, non linear regression fitting; for potency relative to CAM, based on Kik7/(k6 + k7): overall two-step inhibition of the puromycin reaction
Description: Isolation of 70S ribosomes from E. coli K12 cells and preparation of Ac[^3H]Phe-tRNA^Phe charged to 80% were performed, as described previously ([23]). The post-translocation complex of poly(U)-programmed ribosomes (complex C), bearing tRNA^Phe at the E-site and Ac[^3H]Phe-tRNA at the P-site was prepared in buffer A (100 mM Tris-HCl pH 7.2, 6 mM (CH3COO)2Mg, 100 mM NH4Cl and 6 mM 2-mercaptoethanol). The percentage of active ribosomes in AcPhe-tRNA binding was 72%. This ribosomal population was more than 90% reactive toward puromycin.
The reaction between complex C and excess puromycin (S), a pseudo-substrate which binds to the ribosomal A-site, was performed at 25°C in buffer A and analyzed as described in detail elsewhere ([11]). Briefly, since the reaction followed first-order kinetics, the first-order rate constant kobs at each concentration of puromycin was determined by fitting the corrected x-values into Equation ([1]), (1) where x is the product Ac[^3H]Phe-puromycin expressed as the percentage of complex C radioactivity added in the reaction mixture and t the time of the reaction. kobs is related to the puromycin concentration, [S], by the relationship, (2) where kcat is the catalytic rate constant of PTase and KS the affinity constant of puromycin for complex C.
In the presence of CAM–polyamine conjugates, biphasic logarithmic time plots were obtained. The slope of the straight line through the origin was taken as the value of the apparent rate constant, kobs(early), at the early phase of the reaction, while the slope of the second straight line was taken as the value of the rate constant, kobs(late), at the late phase of the reaction.

[4] = system: central loop of Domain V of 23S rRNA, E. coli ribosomes; assay: Time-resolved footprinting of PA–CAM conjugates bound to ribosomes (DMS, kethoxal, CMCT probing, primer extension); assay type: binding
Description: Complexes RI and R*I were then probed at 37°C for 10 min with DMS, kethoxal or CMCT, as described previously ([30]). The modified sites in 23S rRNA were then analyzed by primer extension with reverse transcriptase, according to Moazed et al. ([30]). […] Extension products were run on 6% polyacrylamide/7M urea gels. Identification of the modified nucleotides, quantitative scanning of the gels and normalization of the band intensities were made as previously described ([4]). The values indicated in Table 2 denote the ratio between the normalized intensity of a band of interest and the normalized intensity of the corresponding band in the control lane (ribosomes non-treated with drugs).

[5] = early phase of the reaction (encounter complex CI)
[6] = late phase of the reaction (complex C*I)
[7] = R*I binding state (3 min), conjugate at 50 × Ki, 25°C, ratio to control lane R
[8] = RI binding state (2 s), conjugate at 50 × Ki, 25°C, ratio to control lane R

| SMILES | IC50 (wild-type E. coli) [µM] | IC50/IC50(puro) (wild-type E. coli) | IC50 (wild-type S. aureus) [µM] | IC50 [1] [µM] | IC50 [2] [µM] | Ki [3, 5] [µM] | koff [3] [s⁻¹] | Ki [3, 6] [µM] | potency relative to CAM, based on Kik7/(k6 + k7) [3] | further results |
| --- | --- | --- | --- | --- | --- | --- | --- | --- | --- | --- |
| NCCCCNC(=O)CCC(=O)N[C@H](CO)[C@H](O)c1ccc([N+](=O)[O-])cc1 [Compound 1] | > 200 | >37.0 | > 200 | > 200 | > 200 | 3.37 ± 0.3 | 0.0175 ± 0.00167 | 0.9 ± 0.06 | equal |  |
| NCCCNCCCCNCCCNC(=O)CCC(=O)N[C@H](CO)[C@H](O)c1ccc([N+](=O)[O-])cc1 [Compound 2] | > 100 | >22.2 | 45.3 ± 5.5 | > 100 | > 100 | 2.2 ± 0.2 | 0.0198 ± 0.00267 | 0.75 ± 0.06 | equal |  |
| NCCCCN(CCCN)C(=O)CCC(=O)N[C@H](CO)[C@H](O)c1ccc([N+](=O)[O-])cc1 [Compound 3] | > 150 | >20.8 | 12.7 ± 1 | > 150 | > 150 | 3.6 ± 0.3 | 0.021 ± 0.00217 | 1.2 ± 0.1 | lower potency | protection of U2585 against CMCT (footprinting) ([4]; 2 s or 3 min incubation, Supplementary Figure S6): fails to detect a similar protection |
| O=C(CCC(=O)N[C@H](CO)[C@H](O)c1ccc([N+](=O)[O-])cc1)NCCCNCCCCN(Cc1ccccc1)Cc1ccccc1 [Compound 5] |  | 9.86 ± 1.29 | 13.7 ± 1.2 | 37.1 ± 3.1 | 32.3 ± 3 | 2.1 ± 0.17 | 0.0148 ± 0.0013 | 0.6 ± 0.05 | 1.5 fold | IC50 (wild-type E. coli; WT-E. coli, LB medium, 37°C): 35.5 ± 3.6 µM; Relative reactivity of nucleoside A2058 [4, 7]: 0.95 ± 0.08; Relative reactivity of nucleoside A2059 [4, 7]: 1.00 ± 0.08; Relative reactivity of nucleoside A2062 [4, 7]: 1.00 ± 0.09; Relative reactivity of nucleoside A2451 [4, 7]: 0.70 ± 0.05^b; Relative reactivity of nucleoside A2602 [4, 7]: 0.89 ± 0.07; Relative reactivity of nucleoside G2505 [4, 7]: 0.50 ± 0.15^b,c; Relative reactivity of nucleoside U2506 [4, 7]: 0.70 ± 0.06^b; Relative reactivity of nucleoside U2609 [4, 7]: 0.90 ± 0.08; Relative reactivity of nucleoside A2058 [4, 8]: 1.10 ± 0.09; Relative reactivity of nucleoside A2059 [4, 8]: 0.90 ± 0.08; Relative reactivity of nucleoside A2062 [4, 8]: 1.00 ± 0.06; Relative reactivity of nucleoside A2451 [4, 8]: 0.65 ± 0.04^b; Relative reactivity of nucleoside A2602 [4, 8]: 1.00 ± 0.06; Relative reactivity of nucleoside G2505 [4, 8]: 0.74 ± 0.06^b; Relative reactivity of nucleoside U2506 [4, 8]: 0.75 ± 0.05^b; Relative reactivity of nucleoside U2585 [4, 8]: 0.92 ± 0.10; Relative reactivity of nucleoside U2609 [4, 8]: 1.00 ± 0.10 |
| NCCCCNC(=O)c1ccccc1C(=O)N[C@H](CO)[C@H](O)c1ccc([N+](=O)[O-])cc1 [Compound 6] | > 200 |  | > 200 | > 200 | > 200 | 214 ± 17.1 | 0.0125 ± 0.001 | 8.45 ± 0.67 | lower potency |  |
| O=C(N[C@H](CO)[C@H](O)c1ccc([N+](=O)[O-])cc1)c1nc[nH]n1 [Compound 8] | > 300 | >50 | > 100 | > 300 | > 300 | 3 ± 0.3 | 0.0183 ± 0.002 | 1 ± 0.1 | equal |  |
| O=C(CCNC(=O)c1nc[nH]n1)N[C@H](CO)[C@H](O)c1ccc([N+](=O)[O-])cc1 [Compound 9] | > 200 | >8.3 | 66 ± 4.6 | > 200 | > 200 | 12 ± 1.08 | 0.014 ± 0.0013 | 4 ± 0.44 | lower potency |  |

From PMC4117768, “Conjugation with polyamines enhances the antibacterial and anticancer activity of chloramphenicol” (Nucleic Acids Research, 2014)
